From the NIST ThermoML archive (doi:10.1007/s10765-011-1087-7)

Assays:
[1] = xn = mol fraction of the nth substance listed; conditions: 101 kPa, Liquid; for speed of sound: Pulse-echo method
[2] = refractive index (Na D-line) (dimensionless); xn = mol fraction of the nth substance listed; conditions: 101 kPa, Liquid

Clc1ccc(Cl)c(Cl)c1 [1,2,4-trichlorobenzene] + CCCCCCC(C)O
Conditions	mass density, [1] [kg/m3]	refractive index, [2]	speed of sound, [1] [m/s]	viscosity, [1] [mPa·s]
298.15 K, x1 = 0.0762	863.97	1.4309	1301.7	5.912
298.15 K, x1 = 0.1303	896.31	1.4366	1296.7	5.452
298.15 K, x1 = 0.2045	939.57	1.4436	1290.1	4.912
298.15 K, x1 = 0.2713	977.28	1.4501	1283.7	4.455
298.15 K, x1 = 0.3461	1018.61	1.4569	1278	3.981
298.15 K, x1 = 0.4173	1057.62	1.4631	1273.2	3.575
298.15 K, x1 = 0.4857	1095.63	1.4698	1269.8	3.223
298.15 K, x1 = 0.5454	1129.39	1.4758	1267	2.955
298.15 K, x1 = 0.6115	1167.72	1.4834	1264.2	2.699
298.15 K, x1 = 0.6798	1209.26	1.4919	1261.9	2.462
298.15 K, x1 = 0.7466	1252.54	1.5009	1259.9	2.281
298.15 K, x1 = 0.8183	1302	1.5119	1259.2	2.118
298.15 K, x1 = 0.8713	1341.45	1.521	1260.4	2.035
298.15 K, x1 = 0.9361	1392.95	1.534	1264.2	1.945
298.15 K, x1 = 1	1448.41	1.548	1272	1.926
303.15 K, x1 = 0.0762	860.11	1.4285	1283.9	4.79
303.15 K, x1 = 0.1303	892.4	1.4337	1279.1	4.507
303.15 K, x1 = 0.2045	935.51	1.4406	1273	4.124
303.15 K, x1 = 0.2713	973.11	1.4469	1266.9	3.783
303.15 K, x1 = 0.3461	1014.26	1.4539	1261.6	3.433
303.15 K, x1 = 0.4173	1053.06	1.4607	1256.9	3.12
303.15 K, x1 = 0.4857	1090.83	1.4676	1253.5	2.849
303.15 K, x1 = 0.5454	1124.39	1.474	1250.5	2.632
303.15 K, x1 = 0.6115	1162.51	1.4818	1248	2.405
303.15 K, x1 = 0.6798	1203.8	1.4905	1245.6	2.205
303.15 K, x1 = 0.7466	1246.93	1.4999	1244.1	2.045
303.15 K, x1 = 0.8183	1296.19	1.511	1243.5	1.909
303.15 K, x1 = 0.8713	1335.49	1.5202	1244.9	1.821
303.15 K, x1 = 0.9361	1386.92	1.5329	1248.7	1.769
303.15 K, x1 = 1	1442.43	1.546	1256.4	1.76
308.15 K, x1 = 0.0762	855.92	1.4271	1266.3	3.886
308.15 K, x1 = 0.1303	887.97	1.4325	1261.9	3.674
308.15 K, x1 = 0.2045	930.81	1.4396	1255.8	3.413
308.15 K, x1 = 0.2713	968.5	1.4459	1250.3	3.169
308.15 K, x1 = 0.3461	1009.82	1.4525	1244.9	2.915
308.15 K, x1 = 0.4173	1048.71	1.4591	1240.3	2.674
308.15 K, x1 = 0.4857	1086.14	1.4658	1237.1	2.456
308.15 K, x1 = 0.5454	1119.57	1.4718	1234.6	2.296
308.15 K, x1 = 0.6115	1157.41	1.4792	1232	2.117
308.15 K, x1 = 0.6798	1198.89	1.4877	1229.9	1.961
308.15 K, x1 = 0.7466	1241.6	1.4969	1228.4	1.827
308.15 K, x1 = 0.8183	1290.6	1.5078	1228	1.725
308.15 K, x1 = 0.8713	1329.97	1.517	1229.3	1.666
308.15 K, x1 = 0.9361	1381.4	1.5295	1233.4	1.628
308.15 K, x1 = 1	1436.45	1.543	1240.9	1.617

CCCCCCC(C)O (stereo unspecified) [2-octanol] + Clc1cccc(Cl)c1
Conditions	mass density, [1] [kg/m3]	refractive index, [2]	speed of sound, [1] [m/s]	viscosity, [1] [mPa·s]
298.15 K, x2 = 0	–	–	–	6.566
298.15 K, x2 = 0.0694	840.61	1.4312	1300.1	5.146
298.15 K, x2 = 0.1166	857.54	1.4366	1295.8	4.43
298.15 K, x2 = 0.1823	881.65	1.4436	1290	3.7
298.15 K, x2 = 0.2395	903.41	1.4494	1285.1	3.231
298.15 K, x2 = 0.3143	932.89	1.4567	1278.7	2.754
298.15 K, x2 = 0.379	959.33	1.4631	1273.3	2.429
298.15 K, x2 = 0.4488	988.41	1.4698	1268	2.138
298.15 K, x2 = 0.5084	1014.16	1.4758	1263.7	1.934
298.15 K, x2 = 0.582	1047.42	1.4838	1258.9	1.715
298.15 K, x2 = 0.6659	1086.85	1.4939	1254.6	1.505
298.15 K, x2 = 0.7208	1114.21	1.5009	1252.4	1.394
298.15 K, x2 = 0.7847	1147.67	1.5099	1250.7	1.279
298.15 K, x2 = 0.8663	1194.04	1.5224	1250.4	1.151
298.15 K, x2 = 0.9434	1243.52	1.5349	1251.8	1.065
303.15 K, x2 = 0	–	–	–	5.178
303.15 K, x2 = 0.0694	836.24	1.4293	1282.4	4.351
303.15 K, x2 = 0.1166	852.87	1.4348	1278.1	3.821
303.15 K, x2 = 0.1823	876.71	1.4418	1272.3	3.246
303.15 K, x2 = 0.2395	898.21	1.4475	1267.5	2.847
303.15 K, x2 = 0.3143	927.45	1.4546	1261.2	2.412
303.15 K, x2 = 0.379	953.45	1.4608	1256.1	2.113
303.15 K, x2 = 0.4488	982.39	1.4677	1251	1.857
303.15 K, x2 = 0.5084	1007.74	1.4738	1246.9	1.679
303.15 K, x2 = 0.582	1040.69	1.4819	1242.3	1.51
303.15 K, x2 = 0.6659	1079.96	1.4921	1238.3	1.378
303.15 K, x2 = 0.7208	1107.42	1.4994	1236.2	1.302
303.15 K, x2 = 0.7847	1141.2	1.5084	1234.6	1.226
303.15 K, x2 = 0.8663	1187.75	1.5209	1234.2	1.14
303.15 K, x2 = 0.9434	1236.9	1.5327	1235.6	1.042
308.15 K, x2 = 0	–	–	–	4.162
308.15 K, x2 = 0.0694	832.14	1.4273	1264.6	3.517
308.15 K, x2 = 0.1166	848.59	1.4327	1260.1	3.17
308.15 K, x2 = 0.1823	871.91	1.4397	1254.2	2.759
308.15 K, x2 = 0.2395	892.9	1.4455	1249.6	2.463
308.15 K, x2 = 0.3143	920.82	1.4527	1243.5	2.119
308.15 K, x2 = 0.379	945.97	1.4589	1238.9	1.892
308.15 K, x2 = 0.4488	974.25	1.4658	1233.9	1.673
308.15 K, x2 = 0.5084	999.57	1.4718	1230.2	1.512
308.15 K, x2 = 0.582	1032.22	1.4798	1226	1.358
308.15 K, x2 = 0.6659	1071.96	1.4898	1221.9	1.207
308.15 K, x2 = 0.7208	1099.76	1.4969	1219.4	1.132
308.15 K, x2 = 0.7847	1134.17	1.5057	1217.9	1.05
308.15 K, x2 = 0.8663	1181.99	1.518	1217.3	0.956
308.15 K, x2 = 0.9434	1231.4	1.5298	1219.3	0.898
